Reference: patent US9632085B2, “Rapid antibiotic susceptibility testing” (PRESIDENT AND FELLOWS OF HARVARD COLLEGE, priority 2012, dated 2017)

Key:
DH5alpha E. coli = assay: FcMBL bead captured bacteria cultured 2 hours in LB with or without antibiotic, quantified on LB Agar plates; assay type: cell-based; settings: 2 hours at 37° C. in LB; Carbenicillin 100 μg/ml (FIG. 3 legend); range of titers down to 300 colonies
Experimental: In preliminary studies, the inventors tested the discrimination of the antibiotic susceptibility assay described herein with a range of titers of DH5alpha E. coli (corresponding to blood titers from a range of sepsis patients from septic shock to SIRS) FcMBL bead captured bacteria were cultured for 2 hours at 37° C. with vigorous agitation/aeration in Luria Broth (LB) or in LB supplemented with the bacteriocidal antibiotic Carbenicillin or the bacteriostatic antibiotic Spectomycin. The bacteria were quantified on LB Agar plates. In all cases, the inventors were able to discriminate between the growth in LB compared with growth in LB with bacteriocidal or bacteriostatic antibiotic (see FIG. 3).

E. coli = assay: Antibiotic susceptibility from single bacterium: FcMBL bead capture, gel matrix, resazurin/Sytox Green 11 live-dead imaging; assay type: cell-based; settings: kanamycin at 50 μg/ml in BHI; captured E. coli grown in gel matrix; time after antibiotic addition
Experimental: Bacteria in a biological sample were captured by FcMBL coated magnetic beads. The bead/bacteria were washed and added to a microscope compatible surface (for example, plasma treated coverslip or glass bottom microplates) and immobilized by an underlying magnet. A low melt agarose gel 37° C. containing growth media (BHI), resazurin (a stain for labeling live cells), and Sytox Green 11 (a stain for labeling dead cells) was overlaid on the bacteria-bound FcMBL magnetic beads to immobilize and/or secure the bacteria in place. In some embodiments where the bead/bacteria were spotted on glass bottom microplates, the wells were filled with growth medium containing fluorescent stains for live and/or dead cells. The captured bacteria were incubated on the slide or in the wells for about 1-2 hours at about 36-37° C. and imaged by microscopy, e.g., fluorescent microscopy. Live cells could be identified by resorufin (metabolized resazurin) stain and coordinates of the live cells could be determined and stored for iterative imaging. […] Bacteria can be observed for, for example, growth in the presence of the antibiotics (to determine the resistance of the bacteria to the particular antibiotics), cell death determined by fluorescent stain for dead cells (to determine bactericidal activity), and/or inhibition of growth (to determine bacteriostatic activity). […]

Row | Structure (SMILES) | bacterial counts compared with LB and LB with bacteriostatic antibiotic (DH5alpha E. coli) | color change from red-resorufin to green Sytox green 11 (cell death) observed for some of the bacteria (E. coli) [min] | complete effect for all cells in the tracked fields of vision (E. coli) [min]
1 | CC1(C)S[C@@H]2[C@H](NC(=O)C(C(=O)O)c3ccccc3)C(=O)N2[C@H]1C(=O)O (stereo partly drawn) [Carbenicillin] | lowest of the three conditions tested |  | 
2 | NC[C@H]1O[C@H](O[C@H]2[C@H](O)[C@@H](O[C@H]3O[C@H](CO)[C@@H](O)[C@H](N)[C@H]3O)[C@H](N)C[C@@H]2N)[C@H](O)[C@@H](O)[C@@H]1O [Kanamycin] |  | ≤ 5 | 30 to 40
